ChEMBL document CHEMBL6177931, “Exploring diverse frontiers: Advancements of bioactive 4-aminoquinoline-based molecular hybrids in targeted therapeutics and beyond” (Eur J Med Chem, 2024)
Converted amounts (≈) assume the structure as drawn.

How the values were obtained:
Staphylococcus aureus [1] = experiment: Antibacterial activity against Staphylococcus aureus NCIM-2079 incubated for 16 to 24 hrs by broth microdilution method; type: functional; details: time 16-24 hrs
Bacillus subtilis = experiment: Antibacterial activity against Bacillus subtilis NCIM-2063 incubated for 16 to 24 hrs by broth microdilution method; type: functional; details: time 16-24 hrs
Bacillus cereus = experiment: Antibacterial activity against Bacillus cereus NCIM-2156 incubated for 16 to 24 hrs by broth microdilution method; type: functional; details: time 16-24 hrs
Pseudomonas aeruginosa = experiment: Antibacterial activity against Pseudomonas aeruginosa NCIM-2036 incubated for 16 to 24 hrs by broth microdilution method; type: functional; details: time 16-24 hrs
Escherichia coli [2] = experiment: Antibacterial activity against Escherichia coli NCIM-2065 incubated for 16 to 24 hrs by broth microdilution method; type: functional; details: time 16-24 hrs
Proteus vulgaris = experiment: Antibacterial activity against Proteus vulgaris […] NCIM-2027 incubated for 16 to 24 hrs by broth microdilution method; type: functional; details: time 16-24 hrs
HeLa [3] = experiment: Anticancer activity against human HeLa cells incubated for 48 hrs by MTT assay; type: functional, cell-based
MCF7 [4] = experiment: Anticancer activity against human MCF7 cells incubated for 48 hrs by MTT assay; type: functional, cell-based; details: MCF7, 48 h
HL-60 [5] = experiment: Anticancer activity against human HL-60 cells incubated for 48 hrs by MTT assay; type: functional, cell-based; details: HL-60, 48 h
HepG2 [6] = experiment: Anticancer activity against human HepG2 cells incubated for 48 hrs by MTT assay; type: functional, cell-based; details: HepG2, 48 h
[7] = target: T1, Cholinesterases; ACHE & BCHE (Homo sapiens) (UniProt P06276+P22303); experiment: Selectivity ratio of IC50 for inhibition of human BchE to IC50 for inhibition of recombinant human AchE; type: protein assay
Curvularia lunata = experiment: Antifungal activity against Curvularia lunata incubated for 72 hrs by mycelium growth rate method; type: functional, organism-based
Pyricularia grisea = experiment: Antifungal activity against Pyricularia grisea incubated for 72 hrs by mycelium growth rate method; type: functional, organism-based
Alternaria alternata = experiment: Antifungal activity against Alternaria alternata incubated for 72 hrs by mycelium growth rate method; type: functional, organism-based
A549 = experiment: Antiproliferative activity against human A549 cells assessed as reduction in cell viability incubated for 24 hrs by MTT assay; type: functional, cell-based; details: A549, 24 h
HeLa [8] = experiment: Antiproliferative activity against human HeLa cells incubated for 24 hrs by MTT assay; type: functional, cell-based
SGC-7901 = experiment: Antiproliferative activity against human SGC-7901 cells incubated for 24 hrs by MTT assay; type: functional, cell-based; details: SGC-7901, 24 h
[9] = Cytotoxicity against human L02 cells incubated for 24 hrs by MTT assay; type: toxicity, cell-based
Escherichia coli [10] = experiment: Antibacterial activity against Escherichia coli ATCC 29213 incubated for 24 hrs by broth microdilution method; type: functional
Staphylococcus aureus [11] = experiment: Antibacterial activity against Staphylococcus aureus ATCC 8739 incubated for 24 hrs by broth microdilution method; type: functional
SARS-CoV = experiment: Antiviral activity against SARS-CoV 2019-nCoV infected in african green monkey Vero E6 cells; type: functional; details: Severe acute respiratory syndrome-related coronavirus, Vero C1008
[12] = Inhibition of ConA-induced IL-6 secretion in female BALB/c mouse splenocyte incubated for 48 hrs by ELISA; type: functional, cell-based
[13] = Inhibition of ConA-induced IL-1beta secretion in female BALB/c mouse splenocyte incubated for 48 hrs by ELISA; type: functional, cell-based
[14] = Inhibition of ConA-induced TNF-alpha secretion in female BALB/c mouse splenocyte incubated for 48 hrs by ELISA; type: functional, cell-based
Acetylcholinesterase = Acetylcholinesterase (Homo sapiens, UniProt P22303); experiment: Inhibition of AChE (unknown origin)
Plasmodium falciparum = experiment: Antiplasmodial activity against chloroquine sensitive Plasmodium falciparum NF54 incubated for 48 hrs by lactate dehydrogenase assay; type: functional, organism-based; details: NF54, Erythrocyte
[15] = target: T1, Cholinesterases; ACHE & BCHE (Homo sapiens); experiment: Selectivity ratio of IC50 for inhibition of recombinant human AchE to IC50 for inhibition of human BchE; type: protein assay
MCF7 [16] = experiment: Antiproliferative activity against human MCF7 cells assessed as cell growth inhibition incubated for 72 hrs by MTT assay; type: functional
HCT-116 = experiment: Anticancer activity against human HCT-116 cells assessed as cell growth inhibition incubated for 72 hrs by MTT assay; type: functional
NCI-H460 = experiment: Anticancer activity against human NCI-H460 cells assessed as cell growth inhibition incubated for 72 hrs by MTT assay; type: functional
LN-229 = experiment: Anticancer activity against human LN-229 cells assessed as cell growth inhibition by MTS assay; type: functional
CAPAN-1 = experiment: Anticancer activity against human CAPAN-1 cells assessed as cell growth inhibition by MTS assay; type: functional
[17] = Anticancer activity against human DND41 cells assessed as cell growth inhibition incubated for 72 hrs by CellTiter96 aqueous Non-Radioactive Cell Proliferation Assay; type: functional
HL-60 [18] = experiment: Anticancer activity against human HL-60 cells assessed as cell growth inhibition incubated for 72 hrs by CellTiter96 aqueous Non-Radioactive Cell Proliferation Assay; type: functional
K562 = experiment: Anticancer activity against human K562 cells assessed as cell growth inhibition incubated for 72 hrs by CellTiter96 aqueous Non-Radioactive Cell Proliferation Assay; type: functional
Z-138 = experiment: Anticancer activity against human Z138 cells assessed as cell growth inhibition incubated for 72 hrs by CellTiter96 aqueous Non-Radioactive Cell Proliferation Assay; type: functional
Coxsackievirus = experiment: Antiviral activity against Coxsackievirus B4 infected in human HEp-2 cells assessed as reduction in virus-induced cytopathic effect incubated for 3 to 10 days by MTS assay; type: functional, organism-based; details: B4, HEp-2
Zika virus = experiment: Antiviral activity against Zika virus infected in African green monkey Vero cells assessed as reduction in virus-induced cytopathic effect incubated for 3 to 10 days by MTS assay; type: functional, organism-based
[19] = Cytotoxicity against human HEp-2 cells assessed as reduction in cell viability incubated for 3 to 10 days by MTS assay; type: toxicity, cell-based; details: time 3-10 day
[20] = Cytotoxicity against African green monkey Vero cells assessed as reduction in cell viability incubated for 3 to 10 days by MTS assay; type: toxicity, cell-based; details: chlorocebus sabaeus, time 3-10 day
HT-29 = experiment: Antiproliferative activity against human HT-29 cells assessed as reduction in cell viability incubated for 24 hrs by MTT assay; type: functional, cell-based; details: HT-29, 24 h
MCF7 [21] = experiment: Antiproliferative activity against human MCF7 cells assessed as reduction in cell viability incubated for 24 hrs by MTT assay; type: functional, cell-based; details: MCF7, 24 h
[22] = Antiproliferative activity against human AG01522 cells assessed as reduction in cell viability incubated for 24 hrs by MTT assay; type: functional, cell-based; details: AG01522, 24 h
HepG2 [23] = experiment: Antiproliferative activity against human HepG2 cells assessed as reduction in cell proliferation incubated for 24 hrs by MTT assay; type: functional, cell-based; details: HepG2, 24 h
SMMC-7721 = experiment: Antiproliferative activity against human SMMC-7721 cells assessed as reduction in cell proliferation incubated for 24 hrs by MTT assay; type: functional, cell-based; details: SMMC-7721, 24 h
Huh-7 = experiment: Antiproliferative activity against human Huh-7 cells assessed as reduction in cell proliferation incubated for 24 hrs by MTT assay; type: functional, cell-based; details: Huh-7, 24 h
Mus musculus [24] = experiment: Anti-inflammatory activity against carrageenan-induced paw edema mouse model assessed as reduction in edema measured after 1 hrs relative to control; type: functional; parameters: scale not given: the % may be the effect or the level left
Mus musculus [25] = experiment: Anti-inflammatory activity against carrageenan-induced paw edema mouse model assessed as reduction in edema measured after 2 hrs relative to control; type: functional; parameters: scale not given: the % may be the effect or the level left
Mus musculus [26] = experiment: Anti-inflammatory activity against carrageenan-induced paw edema mouse model assessed as reduction in edema measured after 3 hrs relative to control; type: functional; parameters: scale not given: the % may be the effect or the level left

T1 sequence (P06276 whole entry, looked up): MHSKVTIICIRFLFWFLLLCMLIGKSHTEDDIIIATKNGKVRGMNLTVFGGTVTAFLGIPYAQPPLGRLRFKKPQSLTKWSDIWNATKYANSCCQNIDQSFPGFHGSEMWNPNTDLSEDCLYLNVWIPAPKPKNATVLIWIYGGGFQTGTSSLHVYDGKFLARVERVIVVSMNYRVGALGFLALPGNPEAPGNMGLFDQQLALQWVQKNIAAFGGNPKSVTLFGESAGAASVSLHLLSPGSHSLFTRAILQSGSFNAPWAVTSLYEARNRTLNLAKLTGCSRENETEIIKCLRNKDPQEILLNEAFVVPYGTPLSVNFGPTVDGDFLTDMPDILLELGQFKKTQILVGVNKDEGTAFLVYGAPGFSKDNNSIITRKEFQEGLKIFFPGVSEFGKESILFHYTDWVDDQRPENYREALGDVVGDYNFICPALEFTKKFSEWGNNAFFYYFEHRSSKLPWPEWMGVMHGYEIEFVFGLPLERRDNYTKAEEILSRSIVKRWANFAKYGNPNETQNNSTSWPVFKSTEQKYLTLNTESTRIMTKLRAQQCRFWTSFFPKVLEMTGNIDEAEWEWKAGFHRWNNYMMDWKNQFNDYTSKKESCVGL
T1 sequence (P22303 whole entry, looked up): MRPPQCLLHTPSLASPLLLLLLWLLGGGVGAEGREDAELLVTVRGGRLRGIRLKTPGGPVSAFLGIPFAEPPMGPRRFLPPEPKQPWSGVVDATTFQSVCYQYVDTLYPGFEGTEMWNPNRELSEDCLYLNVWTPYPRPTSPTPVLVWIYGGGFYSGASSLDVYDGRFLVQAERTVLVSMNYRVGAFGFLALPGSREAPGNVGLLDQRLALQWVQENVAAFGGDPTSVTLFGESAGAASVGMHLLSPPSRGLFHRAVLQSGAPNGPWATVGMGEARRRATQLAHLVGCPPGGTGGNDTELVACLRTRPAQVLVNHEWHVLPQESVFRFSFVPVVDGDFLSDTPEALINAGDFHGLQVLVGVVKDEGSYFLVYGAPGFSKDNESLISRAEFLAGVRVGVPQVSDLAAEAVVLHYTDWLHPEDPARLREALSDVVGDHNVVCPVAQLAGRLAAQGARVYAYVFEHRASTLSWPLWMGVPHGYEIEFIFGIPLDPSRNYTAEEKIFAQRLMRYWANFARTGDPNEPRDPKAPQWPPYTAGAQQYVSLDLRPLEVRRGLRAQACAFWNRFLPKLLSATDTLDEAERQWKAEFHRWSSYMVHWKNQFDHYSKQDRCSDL
Acetylcholinesterase, sequence (P22303 whole entry): as the sequence (P22303 whole entry, looked up) above

## O=[N+]([O-])c1ccc(Nc2nc(NC(=S)NNc3ccnc4cc(Cl)ccc34)nc(Nc3ccc([N+](=O)[O-])cc3)n2)cc1
Staphylococcus aureus [1]
  MIC: 3.12 µM (≈ 1.88 µg/mL)
Bacillus subtilis
  MIC: 25 µM (≈ 15.1 µg/mL)
Bacillus cereus
  MIC: 12.5 µM (≈ 7.55 µg/mL)
Pseudomonas aeruginosa
  MIC: 3.12 µM (≈ 1.88 µg/mL)
Escherichia coli [2]
  MIC: 12.5 µM (≈ 7.55 µg/mL)
Proteus vulgaris
  MIC: 3.12 µM (≈ 1.88 µg/mL)

## S=C(NNc1ccnc2cc(Cl)ccc12)Nc1nc(Nc2ccc(Cl)cc2)nc(Nc2ccc(Cl)cc2)n1
HeLa [3]
  IC50: 32.4 µM
MCF7 [4]
  IC50: 32.3 µM
HL-60 [5]
  IC50: 26.3 µM
HepG2 [6]
  IC50: 45.3 µM

## Clc1ccc2c(Nc3cccc4c(NCCC56CC7CC(CC(C7)C5)C6)cccc34)ccnc2c1
[7]
  Ratio IC50: 5.8

## Cl.Clc1ccc(Nc2cc(-c3ccccc3)nc3ccccc23)cc1
Curvularia lunata
  EC50: 13.3 µg/mL
Pyricularia grisea
  EC50: 14.4 µg/mL
Alternaria alternata
  EC50: 15.6 µg/mL

## CCC[n+]1cc(C(=O)OCC)c(Nc2ccc(OCc3ccccc3)cc2)c2cc3c(cc21)OCO3
A549
  IC50: 5.18 µM
HeLa [8]
  IC50: 7.62 µM
SGC-7901
  IC50: 17.6 µM
[9]
  IC50 at 24 h: 54.5 µM
Escherichia coli [10]
  MIC: 3.12 µM
Staphylococcus aureus [11]
  MIC: 3.12 µM

## CCN(CC)CCCC(C)Nc1ccnc2cc(Cl)ccc12 (stereo not given) [CHLOROQUINE]
SARS-CoV
  EC90: 6.9 µM
[12]
  IC50: 14.6 µM
[13]
  IC50: 2.72 µM
[14]
  IC50: 35 µM

## O=P(NCCCCCCCCCCCCNc1c2c(nc3ccccc13)CCCC2)(Oc1ccccc1)Oc1ccccc1
Acetylcholinesterase
  IC50: 24300 µM

## O=C(/C=C/c1ccccc1Br)c1ccc(S(=O)(=O)NCCCNc2ccnc3cc(Cl)ccc23)cc1
Plasmodium falciparum
  IC50: 0.1 µM

## CC(CCNCCC12CC3CC(CC(C3)C1)C2)Nc1ccnc2cc(Cl)ccc12 (stereo not given)
[15]
  Ratio IC50: 10

## C/C(=C\C(=O)NCCCCNc1cc(C(F)(F)F)nc2c(C(F)(F)F)cccc12)C(=O)NCCCCNc1cc(C(F)(F)F)nc2c(C(F)(F)F)cccc12
MCF7 [16]
  GI50: 0.7 µM
HCT-116
  GI50: 2.4 µM
NCI-H460
  GI50: 3 µM
LN-229
  GI50: 2.4 µM
CAPAN-1
  GI50: 2.3 µM
[17]
  GI50: 7.9 µM
HL-60 [18]
  GI50: 2.6 µM
K562
  GI50: 8.6 µM
Z-138
  GI50: 6.9 µM
Coxsackievirus
  EC50: 0.85 µM
Zika virus
  EC50: 0.85 µM
[19]
  CC50: 6.7 µM
[20]
  CC50: 10 µM

## O=c1cc(CCl)n(CCCNc2ccnc3cc(Cl)ccc23)cc1OCc1ccccc1
A549
  IC50: 0.81 µM
HT-29
  IC50: 1.41 µM
MCF7 [21]
  IC50: 1.26 µM
[22]
  IC50: 2.87 µM

## O=C(N/N=C/c1cc(O)ccc1O)c1ccc(Nc2ccnc3ccccc23)cc1
HepG2 [23]
  IC50: 23.7 µM
SMMC-7721
  IC50: > 50 µM
Huh-7
  IC50: 18.6 µM

## O=C(CN1CCN(c2ccccc2)CC1)N1CCN(c2ccnc3cc(Cl)ccc23)CC1
Mus musculus [24]
  Activity: 34%
Mus musculus [25]
  Activity: 50%
Mus musculus [26]
  Activity: 64%
